These results are taken from US20030118525A1, “Treatment of uv induced immunosuppression” (priority 2000, published 2003).

Assay [1] deals with mice irradiated with simulated solar UV radiation (SSUV). Description: Erythema/oedema as mid-dorsal skinfold thickness after simulated solar UV radiation. The class given is in vivo. Here is the method:
(§1) 1.1 Solar simulated radiation (SSUV) was produced from a filtered fluorescent tube source, and was administered at the rate of 1 MED daily for 3Days.
1.2 Erythema was measured as a mid-dorsal skinfold thickness, which comprises mostly the oedema component of erythema.
(§2) Carnosine incorporated into cosmetic creams at 0.1% and 1.00%, was compared with a cream containing 0.1% acetylcarnosine and a control cream containing neither carnosine nor acylcarnosine. The creams were applied daily (100 μl per mouse) immediately following irradiation with 1 MED of simulated solar UV radiation on 3 consecutive days only.
The sunburn (erythema) response was measured in mice by the oedema component at the peak of the erythema (48 h after the first UV exposure).

Assay [2] shares this test system. Description: Contact hypersensitivity to oxazolone after SSUV irradiation (ear swelling). Conditions: 0.1% cream; in words. The class given is in vivo. The protocol: as §1
1.3 Contact hypersensitivity was induced by application of 100 μl 0.2% w/v oxazolone in ethanol, to the abdominal skin of groups of 6 mice. The mice were challenged by application of 5 μl of fresh oxazolone/ethanol to each surface of both pinnae one week later, and the ear swelling response was measured 24 h later.
as §2

The test system of assay [3] is collagen in mouse fibroblasts. Description: Collagen cross-linking by UV (solar) irradiation in mouse fibroblasts in vitro. The class given is cell-based. The note with it: 1-2 μM. The source says: (§3) 1.4 Collagen cross-linking by UV (solar) irradiation was achieved as described in WO 90/06102.
Assay [4] has as its system collagen in human fibroblasts. The experiment in a line: Collagen cross-linking by UV (solar) irradiation in human fibroblasts in vitro. The class given is cell-based. Conditions: 1-2 μM.
Description: as §3

Another assay deals with collagen in mouse skin. Description: Collagen cross-linking by UV (solar) irradiation in mouse skin. Conditions: 1-2 μM.
Description: as §3

`CC(=O)NCCC(=O)N[C@@H](Cc1cnc[nH]1)C(=O)O` [acetylcarnosine, N-acetylcarnosine]: the “% increase in skinfold thickness” value in assay [1] (0.1% cream, 100 μl per mouse daily immediately after 1 MED SSUV on 3 days, measured at 48 h, base + SSUV 30.2) is reported as 11.3%. Also, in assay [1] (creams applied after SSUV, 48 h after the first UV exposure, in words), the “sunburn (erythema) response, oedema component at peak of erythema” value is listed as “significant reduction”. In addition, the “protection against suppression of contact hypersensitivity resulting from UV irradiation” value in assay [2] was “totally prevented”. The “inhibition of cross linking of collagen by UV (solar) irradiation” value (in assay [3]; in assay [4]; in the assay on collagen in mouse skin) was “completely inhibited” in each case.
